Data published in BigSolDB 2.1.

O=C(OCCO)c1ccc(C(=O)OCCO)cc1
solubility (mole fraction)
Settings	283.15 K	288.15 K	293.15 K	298.15 K	303.15 K	308.15 K	313.15 K	318.15 K	323.15 K	328.15 K
in ethanol	0.000577	0.000802	0.00113	0.00141	0.00169	0.00249	0.00315	0.00395	0.00521	0.00656
in ethylene glycol	0.000174	0.000264	0.000391	0.000554	0.000859	0.00118	0.0018	0.00255	0.0037	0.00499
in methanol	0.000772	0.00104	0.00142	0.00184	0.00238	0.00329	0.00404	0.00517	0.00656	0.00815
in water	1.7e-05	2.4e-05	3.2e-05	4.2e-05	5.8e-05	7.7e-05	9.6e-05	0.000132	0.000171	0.000221
